# Earlier results in patent US20060178351A1, “Treatment of immune-mediated disorders with active vitamin D compounds alone or in combination with other therapeutic agents” (Novacea, Inc., priority 2003, published 2006).
# Conditions: relative to an equal dose of calcitriol
smiles,measurement,value
C=C1/C(=C\C=C2/CCC[C@]3(C)C([C@H](C)CC#CC(C)(C)O)=CC[C@@H]23)C[C@@H](O)C[C@@H]1O [Ro23-7553],Hypercalcemic effect compared to calcitriol,reduced hypercalcemic effect
